The values below come from US8343515B2, “Perfluorocarbon gel formulations” (Oxygen Biotherapeutics, Inc., priority 2008, dated 2013).

The subject of data set [1] is skin tissue. Nature of the data set: Measuring oxygen tension in tissue with fluorescent marker (Example 4). The settings on record: fluorescent marker injected into skin area treated with PFC or PFC gel. In kind it is in vivo. On the procedure: A material which binds oxygen (fluorescent marker) is injected into skin tissue. The combination is fluorescent and the more oxygen that is present, the stronger the fluorescent signal. (representing the oxygen tension in the tissue). First it is determined that fluorescence chemistry is unaffected by the PFCs and poloxamers. Then as a control, the fluorescent marker is injected into the skin, and oxygen tension is obtained. Finally, the same area is treated with a PFC or a PFC gel and oxygen tension is again obtained.

Data set [2] in a line: Water solubility and lipophilicity (descriptive). In kind it is physicochemical.
Data set [3] can be described thus: Physical properties of perfluoro(tert-butylcyclohexane). In kind it is physicochemical. From the text:
Physical properties of perfluoro(tert-butylcyclohexane) are as follows: […]

Data set [4] in a line: Gas solubility / Henry's Law sorption of oxygen and CO2 in the liquid. It is filed as physicochemical. On the procedure: The amount of dissolved oxygen in the liquid is measured after equilibration with a gas. The partial pressure of the gas (here, oxygen) is varied. The partial pressure of oxygen in air is 0.21 atm.
The amount of oxygen dissolved in each when the liquids are at equilibrium with the oxygen in the air can be found from the Henry's Law sorption isotherms for the liquids sketched in FIG. 2.
When the solubility of a gas in a liquid is measured, the solubility is nearly always a linear function of the partial pressure of the gas.

The conditions of data set [5]: 25° C.; cited from earlier work.
Where [6] appears, read: used for conversion to weight basis.

Like-named read-outs stand apart in the source and are kept apart here.

In the case of “perfluoroisopropyldecalin [APF-200, reference compound]”, in data set [1], the “oxygen tension in tissue” value is given as “substantially increases local oxygen tension in the tissue”.
By density is commonly meant the mass of a sample divided by its volume. Take `FC(F)(F)C(C(F)(F)F)(C(F)(F)F)C1(F)C(F)(F)C(F)(F)C(F)(F)C(F)(F)C1(F)F` [perfluoro(tert-butylcyclohexane)]: in data set [2], the “lipophilicity” value is given as “non-lipophilic” and the “solubility in water” value was “non-water soluble”. Besides, the “lipophilicity” value in data set [2] (at body temperature) is “only slightly lipophilic”. In addition, the “lipophilicity” value in data set [2] (at room temperature) was “not lipophilic”. Moreover, in data set [1], the “oxygen tension in tissue” value is recorded as “substantially increases local oxygen tension in the tissue”. Moreover, in data set [3], the “Kinematic Viscosity (cP)” value turned out to be 5.378 cP and the “density” value came out at 1970 g/L. In addition, the “Vapor Pressure (mmHg) @ 25° C.” value in data set [3] (25° C.) is 3.8 mmHg. Also, in data set [3] (37° C.), the “Vapor Pressure (mmHg) @ 37° C.” value worked out at 4.4 mmHg. Further, the density in data set [3] (setting [6]) was determined as 1966 g/L. In data set [4], the CO2 carried is 196 mL of CO2 per 100 mL of PFC, the oxygen carried result is “about 43 mL of oxygen per 100 mL of PFC” and the “oxygen held in contact with air” value was “about 126 mg O2”. Also, the “Henry's law constant for oxygen” value in data set [5] is given as “about 600 mg O2/L/atm”.
Molecule water displayed a density in data set [3] (setting [6]) of 1000 g/L. The “Henry's law constant for oxygen” value in data set [5] was “about 8.3 mg O2/L/atm”.
